Here are results for 23 compounds from US8557816B2, “Aurora kinase modulators and method of use” (Amgen Inc., priority 2007, dated 2013).

The target of one experiment is T1, AuroraA-TPX2 (Homo sapiens, UniProt O14965).
T1 construct: 20 μL of AuroraA-TPX2 KD GST for a final volume of about 41 μL; GST
T1 sequence (O14965 133-383 limits assumed): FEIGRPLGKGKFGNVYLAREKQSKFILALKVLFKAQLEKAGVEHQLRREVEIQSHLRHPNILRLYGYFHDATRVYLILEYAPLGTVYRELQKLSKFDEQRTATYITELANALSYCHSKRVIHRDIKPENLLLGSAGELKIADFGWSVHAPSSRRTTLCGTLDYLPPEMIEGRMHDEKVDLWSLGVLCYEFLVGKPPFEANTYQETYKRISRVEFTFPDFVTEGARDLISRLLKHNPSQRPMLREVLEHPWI
T1 sequence (Q9ULW0 1-43 partner limits assumed): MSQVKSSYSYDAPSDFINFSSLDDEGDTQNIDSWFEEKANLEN
The experiment can be described thus: AuroraA-TPX2 Homogeneous Time Resolved Fluorescent (HTRF) kinase assay. The format is biochemical. The following applies: average; read-out: AurA_IC50_IP (uM Avg). On the procedure:
AuroraA-TPX2-Homogeneous Time Resolved Fluorescent (HTRF) Kinase Assay:
The Aurora-A HTRF assay begins with Aurora-A in the presence of ATP phosphorylating the biotinylated peptide PLK. The reaction incubates for about 120 min. Detection reagents are added to quench the reaction. These agents stop the reaction by diluting out the enzyme and chelating the metals due to the presence of EDTA. After addition, the assay is incubated overnight to allow the detection reagents to equilibrate.
The AuroraA HTRF assay comprises 1 μL of compound in 100% DMSO, 20 μL of ATP and biotinylated PLK, and 20 μL of AuroraA-TPX2 KD GST for a final volume of about 41 μL. The final concentration of PLK is about 1 μM. […] Buffer conditions are as follows: 60 mM HEPES pH 7.5, 25 mM NaCl, 10 mM MgCl, 2 mM DTT, 0.05% BSA.
The assay is quenched and stopped with 160 μL of detection reagent. Detection reagents are as follows: Buffer made of 50 mM Tris, pH 7.5, 100 mM NaCl, 3 mM EDTA, 0.05% BSA, 0.1% Tween20. Added to this buffer prior to reading is Steptavidin allophycocyanin (SA-APC) at a final conc in the assay of 0.0005 mg/mL, and europilated anti-phosphoPLK Ab (Eu-anti-PLK) at a final conc of 0.02 nM.
The assay plate is read in either a Discovery or a RubyStar. The eu-anti-PLK is excited at 320 nm and emits at 615 nm to excite the SA-APC which in turn emits at 655 nm.
On the technique in general: TR-FRET usually uses a lanthanide donor and a delayed reading to cut background.

For the next experiment, the target named is T2, AuroraB (Homo sapiens, UniProt Q96GD4).
T2 construct: 20 μL of AuroraB FL H is for a final volume of 41 μL; His
The experiment can be described thus: AuroraB Homogeneous Time Resolved Fluorescent (HTRF) kinase assay. It counts as biochemical. To be noted: average; read-out: AurB_IC50_IP (uM Avg). On the procedure: AuroraB-Homogeneous Time Resolved Fluorescent (HTRF) Kinase Assay:
The AuroraB HTRF assay begins with AuroraB in the presence of ATP phosphorylating the biotinylated peptide Histone H3. The reaction incubates for about 90 min. the reaction is quenched by addition of detection reagents, which stop the reaction by diluting out the enzyme and chelating the metals due to the presence of EDTA. After addition, the assay is incubated for about 60 min to allow detection reagents to equilibrate.
The AuroraB HTRF assay comprises 1 μL of compound in 100% DMSO, 20 μL of ATP and biotinylated Histone H3, and 20 μL of AuroraB FL H is for a final volume of 41 μL. The final concentration of Histone H3 is 0.1 μM. […] Buffer conditions are as follows: 50 mM HEPES pH 7.5, 5 mM NaCl, 0.5 mM MgCl, 0.5 mM MnCl, 2 mM DTT, 0.05% BSA.
The assay is quenched and stopped with 160 μL of detection reagent. Detection reagents are as follows: Buffer made of 50 mM Tris, pH 7.5, 100 mM NaCl, 3 mM EDTA, 0.05% BSA, 0.1% Tween20. Added to this buffer prior to reading is Steptavidin allophycocyanin (SA-APC) at a final conc in the assay of 0.001 mg/mL, and europilated anti-phosphoHistoneH3 Ab (Eu-anti-HisH3) at a final conc of 0.064 nM.
The assay plate is read in either a Discovery or a RubyStar. The eu-anti-HisH3 is excited at 320 nm and emits at 615 nm to excite the SA-APC which in turn emits at 655 nm.

T2 sequence (Q96GD4 whole entry): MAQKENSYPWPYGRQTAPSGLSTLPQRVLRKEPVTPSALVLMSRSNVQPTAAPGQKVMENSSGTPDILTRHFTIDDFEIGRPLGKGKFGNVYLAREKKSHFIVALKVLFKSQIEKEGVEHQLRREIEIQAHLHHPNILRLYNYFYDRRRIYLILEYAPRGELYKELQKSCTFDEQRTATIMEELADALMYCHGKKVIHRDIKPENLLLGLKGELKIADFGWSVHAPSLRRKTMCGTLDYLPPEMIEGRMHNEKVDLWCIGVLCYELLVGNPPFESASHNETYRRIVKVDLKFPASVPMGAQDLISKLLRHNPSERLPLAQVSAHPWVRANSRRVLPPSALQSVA

`c1ccc(-c2nnc(Nc3ccc(Oc4ccnc5cc(N6CCOCC6)ccc45)cc3)c3ccccc23)cc1` [Example 42, N-(4-(7-Morpholinoquinolin-4-yloxy)phenyl)-4-phenylphthalazin-1-amine]: the IC50 at AuroraA-TPX2 is 0.011 µM; on AuroraB, 0.002 µM.

Turning to `CC(=O)Nc1ccc2nccc(Oc3ccc(Nc4nnc(-c5ccccc5)c5ccccc45)cc3)c2c1` [Example 43, N-(4-(4-(4-Phenylphthalazin-1-ylamino)phenoxy)quinolin-6-yl)acetamide], the IC50 was 0.112 µM on AuroraA-TPX2 and 0.008 µM on AuroraB.

In the case of `N#Cc1cnc2c(Oc3ccc(Nc4nnc(-c5ccccc5)c5ccccc45)cc3)ccnc2c1` [Example 44, 8-(4-(4-phenylphthalazin-1-ylamino)phenoxy)-1,5-naphthyridine-3-carbonitrile], the IC50 came out at 0.332 µM on AuroraA-TPX2 and 0.015 µM at AuroraB.

`Cn1cc(-c2ccc3nccc(Oc4ccc(Nc5nnc(-c6ccccc6)c6ccccc56)cc4)c3c2)cn1` [Example 45, N-(4-(6-(1-Methyl-1H-pyrazol-4-yl)quinolin-4-yloxy)phenyl)-4-phenylphthalazin-1-amine]: the IC50 at AuroraA-TPX2 came to 0.079 µM; at AuroraB, 0.03 µM.

In the case of `NC(=O)c1cc2nccc(Oc3ccc(Nc4nnc(-c5ccccc5)c5ccccc45)cc3)c2s1` [Example 46, 7-(4-(4-phenylphthalazin-1-ylamino)phenoxy)thieno[3,2-b]pyridine-2-carboxamide], the IC50 on AuroraA-TPX2 came to 0.015 µM; on AuroraB, 0.001 µM.

For `COc1ccc(F)cc1-c1nnc(Nc2ccc(Oc3ccnc4cc(C(N)=O)ccc34)cc2)c2ccccc12` [Example 47, 4-(4-(4-(5-fluoro-2-methoxyphenyl)phthalazin-1-ylamino)phenoxy)quinoline-7-carboxamide], the IC50 was 5 µM at AuroraA-TPX2 and 0.138 µM at AuroraB.

On to `FC(F)Oc1cnc2c(Sc3ccc(Nc4nnc(-c5ccccc5)c5ccccc45)cc3)ccnc2c1` [Example 387, N-(4-(7-(difluoromethoxy)-1,5-naphthyridin-4-ylthio)phenyl)-4-phenylphthalazin-1-amine], for which the IC50 on AuroraA-TPX2 was found to be 0.135 µM; on AuroraB, 0.048 µM.

For the compound `Oc1ccc2nccc(Sc3ccc(Nc4nnc(-c5ccc(Cl)cc5)c5ccccc45)cc3)c2c1` [Example 388, 4-(4-(4-(4-Chlorophenyl)phthalazin-1-ylamino)phenylthio)quinolin-6-ol], the IC50 was found to be 0.02 µM on AuroraA-TPX2 and 0.003 µM at AuroraB.

Regarding `COCCOCCOc1ccc2nccc(Sc3ccc(Nc4nnc(-c5ccc(Cl)cc5)c5ccccc45)cc3)c2c1` [Example 389, 4-(4-Chlorophenyl)-N-(4-(6-(2-(2-methoxyethoxy)ethoxy)quinolin-4-ylthio)phenyl)phthalazin-1-amine], the IC50 at AuroraA-TPX2 worked out at 0.021 µM; at AuroraB it was 0.022 µM.

Turning to `CS(=O)(=O)CCOc1ccc2nccc(Sc3ccc(Nc4nnc(-c5ccc(Cl)cc5)c5ccccc45)cc3)c2c1` [Example 390, 4-(4-Chlorophenyl)-N-(4-(6-(2-(methylsulfonyl)ethoxy)quinolin-4-ylthio)phenyl)phthalazin-1-amine], the IC50 at AuroraA-TPX2 and on AuroraB was more than 125 µM in each case.

On to `Clc1ccc(-c2nnc(Nc3ccc(Sc4ccnc5ccoc45)cc3)c3ccccc23)nc1` [Example 391, 4-(5-Chloropyridin-2-yl)-N-(4-(furo[3,2-b]pyridin-7-ylthio)phenyl)phthalazin-1-amine], for which the IC50 stood at 0.601 µM at AuroraA-TPX2 and 0.018 µM on AuroraB.

As to `COc1cc2nccc(Oc3ccc(Nc4nnc(-c5ccccc5)c5ccccc45)cc3)c2cc1C#N` [Example 392, 7-Methoxy-4-(4-(4-phenylphthalazin-1-ylamino)phenoxy)quinoline-6-carbonitrile], the IC50 was 0.159 µM at AuroraA-TPX2 and 0.26 µM at AuroraB.

For `COCCOc1cc2nccc(Oc3ccc(Nc4nnc(-c5ccccc5)c5ccccc45)cc3)c2cc1OC` [Example 393, N-(4-(6-Methoxy-7-(2-methoxyethoxy)quinolin-4-yloxy)phenyl)-4-phenylphthalazin-1-amine], the IC50 came out at 0.013 µM on AuroraA-TPX2 and 0.017 µM at AuroraB.

For the compound `COc1cnc2c(Oc3ccc(Nc4nnc(-c5ccc(Cl)c(OCCS(C)(=O)=O)c5)c5ccccc45)cc3)ccnc2c1` [Example 394, 4-(4-Chloro-3-(2-(methylsulfonyl)ethoxy)phenyl)-N-(4-(7-methoxy-1,5-naphthyridin-4-yloxy)phenyl)phthalazin-1-amine], the IC50 on AuroraA-TPX2 turned out to be 0.015 µM; on AuroraB, 0.009 µM.

`COCCOc1cc(-c2nnc(Nc3ccc(Oc4ccnc5cc(OC)cnc45)cc3)c3ccccc23)ccc1C` [Example 395, N-(4-(7-Methoxy-1,5-naphthyridin-4-yloxy)phenyl)-4-(3-(2-methoxyethoxy)-4-methylphenyl)phthalazin-1-amine]: the figures for the IC50 on AuroraA-TPX2 and at AuroraB were 0.047 µM and 0.012 µM, respectively.

Take `COc1cnc2c(Sc3ccc(Nc4nnc(-c5ccn(C)c(=O)c5)c5ccccc45)cc3)ccnc2c1` [Example 396, 4-(4-(4-(7-Methoxy-1,5-naphthyridin-4-ylthio)phenylamino)phthalazin-1-yl)-1-methylpyridin-2(1H)-one]: the figures for the IC50 at AuroraA-TPX2 and on AuroraB were 0.05 µM and more than 125 µM, respectively.

In the case of `Cc1ccc(-c2nnc(Nc3ccc(Sc4ccnc5ccoc45)cc3)c3ccccc23)cc1F` [Example 398, 4-(3-Fluoro-4-methylphenyl)-N-(4-(furo[3,2-b]pyridin-7-ylthio)phenyl)phthalazin-1-amine], the IC50 on AuroraA-TPX2 amounted to 1.73 µM; on AuroraB it was 0.059 µM.

Regarding `Nc1ccc2nccc(Sc3ccc(Nc4nnc(-c5ccccc5)c5ccccc45)cc3)c2c1` [Example 399, N-(4-(6-Aminoquinolin-4-ylthio)phenyl)-4-phenylphthalazin-1-amine], the IC50 on AuroraA-TPX2 came to 0.286 µM; on AuroraB it was 0.025 µM.

For the compound `COc1cnc2c(Sc3ccc(Nc4nnc(C5=CCNCC5)c5ccccc45)cc3)ccnc2c1` [Example 401, N-(4-(7-Methoxy-1,5-naphthyridin-4-ylthio)phenyl)-4-(1,2,3,6-tetrahydropyridin-4-yl)phthalazin-1-amine], the IC50 is 0.847 µM on AuroraA-TPX2 and 0.052 µM on AuroraB.

`COc1cnc2c(Sc3ccc(Nc4nnc(OC)c5ccccc45)cc3)ccnc2c1` [Example 402, 4-Methoxy-N-(4-(7-methoxy-1,5-naphthyridin-4-ylthio)phenyl)phthalazin-1-amine]: the IC50 on AuroraA-TPX2 was 0.167 µM; on AuroraB it was 0.015 µM.

Take `COc1cnc2c(Sc3ccc(Nc4nnc(OCCC5CCCCN5)c5ccccc45)cc3)ccnc2c1` (stereo not shown) [Example 403, N-(4-(7-Methoxy-1,5-naphthyridin-4-ylthio)phenyl)-4-(2-(piperidin-2-yl)ethoxy)phthalazin-1-amine]: the IC50 was 0.239 µM on AuroraA-TPX2 and 0.005 µM at AuroraB.

With `COc1cnc2c(Sc3ccc(Nc4nnc(C#N)c5ccccc45)cc3)ccnc2c1` [Example 404, 4-(4-(7-Methoxy-1,5-naphthyridin-4-ylthio)phenylamino)phthalazine-1-carbonitrile], the IC50 at AuroraA-TPX2 amounted to 0.447 µM; at AuroraB, 0.009 µM.

For `O=c1ccc2nccc(Sc3ccc(Nc4nnc(-c5ccc(Cl)cn5)c5ccccc45)cc3)c2[nH]1` [Example 405, 8-(4-(4-(5-Chloropyridin-2-yl)phthalazin-1-ylamino)phenylthio)-1,5-naphthyridin-2(1H)-one], the IC50 amounted to 0.042 µM at AuroraA-TPX2 and 0.007 µM on AuroraB.
